From ChEMBL document CHEMBL5465560, “Selectivity Literature for EUbOPEN Chemogenomic Library” (2024)

What was measured:
Conditions in all cases: at 10 µM
[1] = target: TRAF2 and NCK-interacting protein kinase (Homo sapiens) (UniProt Q9UKE5); assay: Selectivity interaction (KinomeScan (DiscoverX)) EUB0000229b TNIK
[2] = target: Tyrosine-protein kinase Yes (Homo sapiens) (UniProt P07947); assay: Selectivity interaction (KinomeScan (DiscoverX)) EUB0000092b YES1
[3] = target: T1, Mitogen-activated protein kinase kinase kinase 6 (Homo sapiens) (UniProt O95382); assay: Selectivity interaction (KinomeScan (DiscoverX)) EUB0000655a MAP3K6
T1 sequence (whole entry): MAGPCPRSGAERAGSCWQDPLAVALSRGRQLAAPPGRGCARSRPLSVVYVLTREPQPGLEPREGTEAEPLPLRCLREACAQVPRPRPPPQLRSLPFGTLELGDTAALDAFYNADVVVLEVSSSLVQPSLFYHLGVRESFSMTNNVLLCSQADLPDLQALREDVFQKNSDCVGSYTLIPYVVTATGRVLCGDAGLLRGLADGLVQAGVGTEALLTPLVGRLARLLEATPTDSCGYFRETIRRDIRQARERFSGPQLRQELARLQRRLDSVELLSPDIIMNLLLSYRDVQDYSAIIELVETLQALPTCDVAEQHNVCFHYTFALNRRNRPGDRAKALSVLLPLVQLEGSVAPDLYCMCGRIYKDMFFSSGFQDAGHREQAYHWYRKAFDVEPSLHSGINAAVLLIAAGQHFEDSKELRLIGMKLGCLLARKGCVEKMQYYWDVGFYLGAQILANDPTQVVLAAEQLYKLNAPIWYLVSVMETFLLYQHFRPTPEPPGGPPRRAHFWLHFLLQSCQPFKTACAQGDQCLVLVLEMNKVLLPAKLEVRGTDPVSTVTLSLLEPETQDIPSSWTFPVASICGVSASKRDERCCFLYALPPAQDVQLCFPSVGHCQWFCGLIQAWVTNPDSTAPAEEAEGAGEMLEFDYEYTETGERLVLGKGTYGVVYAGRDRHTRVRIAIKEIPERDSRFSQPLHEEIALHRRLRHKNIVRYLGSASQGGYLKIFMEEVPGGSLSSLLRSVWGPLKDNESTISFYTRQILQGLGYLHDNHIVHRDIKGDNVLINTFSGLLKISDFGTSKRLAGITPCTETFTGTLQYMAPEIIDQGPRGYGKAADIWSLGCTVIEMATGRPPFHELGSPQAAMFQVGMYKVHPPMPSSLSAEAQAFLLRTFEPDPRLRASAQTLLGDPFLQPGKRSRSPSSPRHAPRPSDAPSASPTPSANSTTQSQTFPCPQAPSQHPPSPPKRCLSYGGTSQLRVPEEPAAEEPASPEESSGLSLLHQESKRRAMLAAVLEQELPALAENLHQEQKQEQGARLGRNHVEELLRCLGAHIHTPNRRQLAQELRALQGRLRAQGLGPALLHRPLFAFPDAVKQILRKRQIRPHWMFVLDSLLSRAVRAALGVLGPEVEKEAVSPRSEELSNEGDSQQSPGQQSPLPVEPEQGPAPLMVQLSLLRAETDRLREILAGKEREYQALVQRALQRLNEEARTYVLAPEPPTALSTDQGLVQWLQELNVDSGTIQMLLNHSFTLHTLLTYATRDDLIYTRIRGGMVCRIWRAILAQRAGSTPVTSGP

[4] = target: T2, Cyclin-dependent kinase 11A (Homo sapiens) (UniProt Q9UQ88); assay: Selectivity interaction (KinomeScan (DiscoverX)) EUB0000618a CDK11A
T2 sequence (whole entry): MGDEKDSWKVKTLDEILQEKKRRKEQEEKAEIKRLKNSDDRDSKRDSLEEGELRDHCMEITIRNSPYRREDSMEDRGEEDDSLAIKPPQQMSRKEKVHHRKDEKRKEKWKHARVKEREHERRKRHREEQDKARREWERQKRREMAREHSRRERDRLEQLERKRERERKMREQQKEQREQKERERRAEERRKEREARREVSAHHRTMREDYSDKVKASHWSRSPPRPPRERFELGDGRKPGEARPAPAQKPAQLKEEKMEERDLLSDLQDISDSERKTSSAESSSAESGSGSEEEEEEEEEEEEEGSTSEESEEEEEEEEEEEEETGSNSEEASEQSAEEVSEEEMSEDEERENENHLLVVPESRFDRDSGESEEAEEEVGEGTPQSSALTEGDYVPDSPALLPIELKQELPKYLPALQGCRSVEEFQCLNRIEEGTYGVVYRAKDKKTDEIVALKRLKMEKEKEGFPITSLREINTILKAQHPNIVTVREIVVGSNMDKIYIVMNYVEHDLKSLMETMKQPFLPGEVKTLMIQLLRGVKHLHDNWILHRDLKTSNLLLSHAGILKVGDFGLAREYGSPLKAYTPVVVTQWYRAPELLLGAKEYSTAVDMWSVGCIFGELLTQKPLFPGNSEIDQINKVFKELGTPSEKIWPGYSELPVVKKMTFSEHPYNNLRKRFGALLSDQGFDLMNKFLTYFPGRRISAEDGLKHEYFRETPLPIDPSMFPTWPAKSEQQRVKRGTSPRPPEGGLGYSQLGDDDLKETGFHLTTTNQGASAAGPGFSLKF

[5] = target: T3, Histone-lysine N-methyltransferase SUV39H1 (Homo sapiens) (UniProt O43463)
T3 sequence (whole entry): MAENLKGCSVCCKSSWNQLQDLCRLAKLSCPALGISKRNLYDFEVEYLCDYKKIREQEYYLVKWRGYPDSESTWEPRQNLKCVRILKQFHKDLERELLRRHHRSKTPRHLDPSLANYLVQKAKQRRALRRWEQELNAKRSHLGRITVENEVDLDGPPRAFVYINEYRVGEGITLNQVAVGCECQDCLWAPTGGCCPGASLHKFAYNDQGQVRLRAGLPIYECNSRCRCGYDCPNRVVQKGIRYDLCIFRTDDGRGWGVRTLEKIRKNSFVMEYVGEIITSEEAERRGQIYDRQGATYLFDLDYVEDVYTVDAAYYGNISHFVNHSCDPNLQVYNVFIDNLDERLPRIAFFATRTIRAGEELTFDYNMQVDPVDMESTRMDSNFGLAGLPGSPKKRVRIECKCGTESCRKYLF

Sequence of TRAF2 and NCK-interacting protein kinase (Homo sapiens) (Q9UKE5 whole entry, looked up): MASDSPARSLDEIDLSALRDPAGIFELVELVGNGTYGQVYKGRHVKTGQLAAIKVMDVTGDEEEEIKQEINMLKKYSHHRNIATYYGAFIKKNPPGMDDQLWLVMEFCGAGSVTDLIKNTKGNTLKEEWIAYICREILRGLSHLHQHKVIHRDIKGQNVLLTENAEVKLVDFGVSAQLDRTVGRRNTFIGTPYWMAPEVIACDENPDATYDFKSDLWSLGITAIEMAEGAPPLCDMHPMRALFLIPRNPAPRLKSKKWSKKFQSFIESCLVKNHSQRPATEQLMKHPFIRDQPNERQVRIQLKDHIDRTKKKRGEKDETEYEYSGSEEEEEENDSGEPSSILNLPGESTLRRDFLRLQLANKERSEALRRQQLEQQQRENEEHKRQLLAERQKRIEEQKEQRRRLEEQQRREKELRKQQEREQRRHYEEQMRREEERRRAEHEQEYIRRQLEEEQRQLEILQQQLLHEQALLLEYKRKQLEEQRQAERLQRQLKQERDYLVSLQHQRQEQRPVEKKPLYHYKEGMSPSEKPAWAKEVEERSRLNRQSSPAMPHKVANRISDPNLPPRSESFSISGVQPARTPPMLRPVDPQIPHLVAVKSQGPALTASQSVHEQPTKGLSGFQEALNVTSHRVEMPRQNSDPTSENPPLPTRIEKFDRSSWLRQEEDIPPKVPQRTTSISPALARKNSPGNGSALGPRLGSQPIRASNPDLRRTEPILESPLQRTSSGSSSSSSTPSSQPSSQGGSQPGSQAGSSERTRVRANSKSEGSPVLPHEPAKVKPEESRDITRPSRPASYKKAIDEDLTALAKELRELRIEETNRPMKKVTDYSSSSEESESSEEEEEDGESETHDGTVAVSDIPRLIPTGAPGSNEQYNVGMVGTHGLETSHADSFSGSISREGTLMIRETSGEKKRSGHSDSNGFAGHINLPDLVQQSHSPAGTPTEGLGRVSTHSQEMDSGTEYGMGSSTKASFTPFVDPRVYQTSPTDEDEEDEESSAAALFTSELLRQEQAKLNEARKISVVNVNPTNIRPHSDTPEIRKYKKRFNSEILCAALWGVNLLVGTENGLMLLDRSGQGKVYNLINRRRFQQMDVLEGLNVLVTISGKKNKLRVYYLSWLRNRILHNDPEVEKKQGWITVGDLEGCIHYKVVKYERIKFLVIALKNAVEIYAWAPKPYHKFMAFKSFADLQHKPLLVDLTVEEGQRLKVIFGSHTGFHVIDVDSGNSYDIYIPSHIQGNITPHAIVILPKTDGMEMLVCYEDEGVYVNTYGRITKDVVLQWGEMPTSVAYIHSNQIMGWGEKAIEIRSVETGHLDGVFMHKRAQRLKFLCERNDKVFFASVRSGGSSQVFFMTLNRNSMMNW
Sequence of Tyrosine-protein kinase Yes (Homo sapiens) (P07947 2-543 limits assumed): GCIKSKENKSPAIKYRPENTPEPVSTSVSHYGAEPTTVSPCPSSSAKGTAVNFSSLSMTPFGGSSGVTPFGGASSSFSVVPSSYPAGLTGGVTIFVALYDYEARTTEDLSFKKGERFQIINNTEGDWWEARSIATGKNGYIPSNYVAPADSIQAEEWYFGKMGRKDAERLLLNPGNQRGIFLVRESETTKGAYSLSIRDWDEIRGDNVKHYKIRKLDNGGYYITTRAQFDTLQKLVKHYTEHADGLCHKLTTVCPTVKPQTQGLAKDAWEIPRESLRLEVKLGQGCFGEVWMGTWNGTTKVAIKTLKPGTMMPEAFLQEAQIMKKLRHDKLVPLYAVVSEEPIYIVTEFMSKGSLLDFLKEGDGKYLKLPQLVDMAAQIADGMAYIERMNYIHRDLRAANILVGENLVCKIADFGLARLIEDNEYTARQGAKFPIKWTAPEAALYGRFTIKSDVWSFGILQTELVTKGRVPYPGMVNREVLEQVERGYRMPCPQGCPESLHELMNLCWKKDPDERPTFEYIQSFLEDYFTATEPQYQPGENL

COc1cc(N(C)c2ccnc3ccc(C(F)(F)F)cc23)cc(OC)c1OC
% binding [1]: 69%

CCC(=O)N1CCN(c2ccc(-n3c(=O)ccc4cnc5ccc(-c6cnc7ccccc7c6)cc5c43)cc2C(F)(F)F)CC1
% of control [2]: 74%

CN(C)CCOc1ccc(-c2nc(-c3ccncc3)c(-c3ccc4c(c3)CC/C4=N\O)[nH]2)cc1
% of control [3]: 100%

O[C@H]1CC[C@H](Nc2ncc3nc(Nc4c(F)cc(F)cc4F)n([C@H]4CCOC4)c3n2)CC1
% of control [4]: 100%

CNCCN1CCC(c2cc(CN(C)C(=O)c3cccc(Oc4ccccc4)c3)ccn2)CC1
% activity [5]: > 90%
